Measurements: ChEMBL document CHEMBL4033641, “Design, synthesis and anticancer potential of NSC-319745 hydroxamic acid derivatives as DNMT and HDAC inhibitors” (Eur J Med Chem, 2017)
Active and inactive are the calls of the source. The calls are words filed in the database; no cut-off is given here.

Tests used:
[1] = system: U-937; experiment: Induction of apoptosis in human U937 cells assessed as viable cells at 10 uM after 48 hrs by Annexin V-FITC/PI staining based flow cytometry (reference value: 99.4%); type: functional; settings: U-937, 48 h, read-out: Activity
[2] = biological target: DNMT3A2/3L complex (Homo sapiens) (UniProt Q9Y6K1+Q9UJW3); experiment: Inhibition of DNMT3A/3L (unknown origin) at 100 uM using biotinylated DNA oligonucleotides as substrate preincubated for 15 mins followed by substrate/[3H]-SAM addition measured after 4 hrs by liquid scintillation counting analysis; type: protein-complex assay
DNMT3A2/3L complex (Homo sapiens), sequence (Q9UJW3 whole entry, looked up): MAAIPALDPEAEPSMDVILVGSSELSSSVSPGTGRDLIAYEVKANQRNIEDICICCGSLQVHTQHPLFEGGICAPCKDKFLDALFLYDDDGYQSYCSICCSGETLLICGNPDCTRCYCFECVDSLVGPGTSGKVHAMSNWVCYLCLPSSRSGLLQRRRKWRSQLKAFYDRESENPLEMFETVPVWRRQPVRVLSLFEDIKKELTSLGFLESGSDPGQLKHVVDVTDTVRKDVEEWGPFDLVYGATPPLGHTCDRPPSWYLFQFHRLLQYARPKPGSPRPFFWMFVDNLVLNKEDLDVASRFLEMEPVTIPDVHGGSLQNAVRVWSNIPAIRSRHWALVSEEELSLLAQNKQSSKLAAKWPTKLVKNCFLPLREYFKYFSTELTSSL
DNMT3A2/3L complex (Homo sapiens), sequence (Q9Y6K1 whole entry, looked up): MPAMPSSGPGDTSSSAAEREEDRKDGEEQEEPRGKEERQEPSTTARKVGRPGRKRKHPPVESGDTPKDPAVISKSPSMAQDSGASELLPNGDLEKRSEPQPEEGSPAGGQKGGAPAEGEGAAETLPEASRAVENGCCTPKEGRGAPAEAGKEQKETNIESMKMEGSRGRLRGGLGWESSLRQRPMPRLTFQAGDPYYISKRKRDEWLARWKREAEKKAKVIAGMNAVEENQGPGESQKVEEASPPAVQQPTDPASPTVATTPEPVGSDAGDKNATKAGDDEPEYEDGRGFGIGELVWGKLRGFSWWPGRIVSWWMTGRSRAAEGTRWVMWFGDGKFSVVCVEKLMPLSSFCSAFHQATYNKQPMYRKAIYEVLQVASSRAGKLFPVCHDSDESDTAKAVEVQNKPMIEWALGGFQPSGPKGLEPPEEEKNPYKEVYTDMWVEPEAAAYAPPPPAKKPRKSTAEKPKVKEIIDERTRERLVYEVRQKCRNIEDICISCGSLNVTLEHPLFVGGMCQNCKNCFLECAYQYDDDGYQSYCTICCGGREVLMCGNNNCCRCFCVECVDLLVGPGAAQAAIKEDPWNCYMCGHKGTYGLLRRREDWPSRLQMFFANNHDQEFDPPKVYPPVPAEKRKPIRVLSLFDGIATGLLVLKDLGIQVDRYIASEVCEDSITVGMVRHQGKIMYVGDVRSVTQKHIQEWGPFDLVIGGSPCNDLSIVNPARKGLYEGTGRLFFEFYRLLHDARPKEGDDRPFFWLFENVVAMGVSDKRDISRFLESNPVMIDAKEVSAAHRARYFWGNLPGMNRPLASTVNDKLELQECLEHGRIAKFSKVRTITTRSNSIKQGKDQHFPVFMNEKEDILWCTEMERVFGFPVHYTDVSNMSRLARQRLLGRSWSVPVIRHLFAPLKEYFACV

[3] = biological target: DNMT3B-DNMT3L complex (Homo sapiens) (UniProt Q9UBC3+Q9UJW3); experiment: Inhibition of DNMT3B/3L (unknown origin) at 100 uM using biotinylated DNA oligonucleotides as substrate preincubated for 15 mins followed by substrate/[3H]-SAM addition measured after 4 hrs by liquid scintillation counting analysis; type: protein-complex assay
DNMT3B-DNMT3L complex (Homo sapiens), sequence (Q9UJW3 whole entry, looked up, other chains not shown): as the sequence (Q9UJW3 whole entry, looked up) above

[4] = system: U-937; experiment: Antiproliferative activity against human U937 cells after 72 hrs by MTT assay; type: functional, cell-based; settings: U-937, 72 h
[5] = system: U-937; experiment: Induction of apoptosis in human U937 cells assessed as necrotic cells at 5 uM after 48 hrs by Annexin V-FITC/PI staining based flow cytometry (reference value: 0%); type: functional
[6] = system: U-937; experiment: Induction of apoptosis in human U937 cells assessed as necrotic cells at 10 uM after 48 hrs by Annexin V-FITC/PI staining based flow cytometry (reference value: 0%); type: functional
[7] = system: K562; experiment: Antiproliferative activity against human K562 cells after 72 hrs by MTT assay; type: functional, cell-based; settings: K562, 72 h
[8] = system: U-937; experiment: Induction of apoptosis in human U937 cells assessed as early apoptotic cells at 5 uM after 48 hrs by Annexin V-FITC/PI staining based flow cytometry (reference value: 0.162%); type: functional
[9] = system: Salmonella typhimurium; experiment: Genotoxicity in Salmonella typhimurium TA97 at 50 times IC50 by Ames test; type: toxicity; settings: salmonella enterica subsp. enterica serovar typhimurium
[10] = species on record: Homo sapiens; experiment: Inhibition of DNMT in human U937 cells assessed as induction of P16 CpG islands demethylation at 1 to 2.5 uM after 36 hrs by PCR analysis; type: cell-based
[11] = species on record: Homo sapiens; experiment: Inhibition of HDAC in human U937 cells assessed as induction of histone H3K9 acetylation after 12 hrs by Western blot analysis; type: cell-based
[12] = system: U-937; experiment: Induction of apoptosis in human U937 cells assessed as viable cells at 2.5 uM after 48 hrs by Annexin V-FITC/PI staining based flow cytometry (reference value: 99.4%); type: functional; settings: U-937, 48 h, read-out: Activity
[13] = biological target: DNA (cytosine-5)-methyltransferase 1 (Homo sapiens) (UniProt P26358); experiment: Inhibition of DNMT1 in human U937 cells assessed as increase in P16INK4A expression level at 1 to 5 uM after 36 hrs by Western blot analysis; type: cell-based
DNA (cytosine-5)-methyltransferase 1 (Homo sapiens), sequence (P26358 whole entry): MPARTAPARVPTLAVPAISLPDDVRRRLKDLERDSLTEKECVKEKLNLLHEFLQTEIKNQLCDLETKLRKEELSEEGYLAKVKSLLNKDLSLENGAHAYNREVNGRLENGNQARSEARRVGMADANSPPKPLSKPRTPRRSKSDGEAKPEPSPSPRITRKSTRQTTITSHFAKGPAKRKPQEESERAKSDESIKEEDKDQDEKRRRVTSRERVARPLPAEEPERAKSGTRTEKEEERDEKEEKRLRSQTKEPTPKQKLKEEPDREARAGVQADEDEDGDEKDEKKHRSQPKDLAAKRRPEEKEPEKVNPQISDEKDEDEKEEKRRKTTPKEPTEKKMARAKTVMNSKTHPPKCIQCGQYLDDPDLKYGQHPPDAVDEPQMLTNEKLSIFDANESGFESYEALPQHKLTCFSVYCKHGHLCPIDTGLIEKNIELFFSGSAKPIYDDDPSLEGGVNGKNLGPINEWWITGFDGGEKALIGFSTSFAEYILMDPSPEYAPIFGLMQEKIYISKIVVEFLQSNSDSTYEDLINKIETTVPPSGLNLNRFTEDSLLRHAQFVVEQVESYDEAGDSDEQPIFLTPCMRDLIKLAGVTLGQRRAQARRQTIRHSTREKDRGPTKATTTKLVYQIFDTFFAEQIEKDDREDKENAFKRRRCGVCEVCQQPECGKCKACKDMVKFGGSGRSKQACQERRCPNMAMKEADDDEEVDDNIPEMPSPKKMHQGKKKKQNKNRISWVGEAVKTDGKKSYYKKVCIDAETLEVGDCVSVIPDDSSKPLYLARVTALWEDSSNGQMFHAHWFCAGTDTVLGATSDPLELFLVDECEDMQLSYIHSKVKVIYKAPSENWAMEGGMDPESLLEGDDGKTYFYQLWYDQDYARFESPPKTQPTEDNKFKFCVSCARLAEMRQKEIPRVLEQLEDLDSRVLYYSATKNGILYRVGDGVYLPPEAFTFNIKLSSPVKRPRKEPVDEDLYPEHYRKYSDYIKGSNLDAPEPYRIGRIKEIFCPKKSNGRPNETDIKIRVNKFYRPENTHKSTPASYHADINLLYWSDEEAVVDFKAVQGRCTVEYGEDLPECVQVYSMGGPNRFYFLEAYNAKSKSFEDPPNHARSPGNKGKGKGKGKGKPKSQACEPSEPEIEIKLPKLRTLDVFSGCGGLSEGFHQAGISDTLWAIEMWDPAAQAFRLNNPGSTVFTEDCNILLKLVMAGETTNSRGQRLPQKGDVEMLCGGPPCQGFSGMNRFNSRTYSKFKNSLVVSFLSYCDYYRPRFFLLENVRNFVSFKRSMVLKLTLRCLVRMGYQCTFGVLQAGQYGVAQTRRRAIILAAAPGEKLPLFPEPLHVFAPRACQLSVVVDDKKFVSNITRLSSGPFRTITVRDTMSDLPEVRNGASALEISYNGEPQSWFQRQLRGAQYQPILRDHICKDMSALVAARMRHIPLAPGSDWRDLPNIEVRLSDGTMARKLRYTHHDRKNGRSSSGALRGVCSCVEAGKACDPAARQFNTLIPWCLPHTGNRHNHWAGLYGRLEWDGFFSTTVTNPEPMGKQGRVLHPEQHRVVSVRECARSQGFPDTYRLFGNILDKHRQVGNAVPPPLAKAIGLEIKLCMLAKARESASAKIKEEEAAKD

[14] = system: U-937; experiment: Induction of apoptosis in human U937 cells assessed as increase in cleaved PARP expression at 1 to 5 uM after 36 hrs by Western blot analysis; type: functional, cell-based
[15] = system: Salmonella typhimurium; experiment: Genotoxicity in Salmonella typhimurium TA98 at 50 times IC50 by Ames test; type: toxicity; settings: salmonella enterica subsp. enterica serovar typhimurium
[16] = system: U-937; experiment: Induction of apoptosis in human U937 cells assessed as early apoptotic cells at 10 uM after 48 hrs by Annexin V-FITC/PI staining based flow cytometry (reference value: 0.162%); type: functional
[17] = system: U-937; experiment: Induction of apoptosis in human U937 cells assessed as increase in PARP expression at 1 to 5 uM after 36 hrs by Western blot analysis; type: functional, cell-based
[18] = system: U-937; experiment: Induction of apoptosis in human U937 cells assessed as necrotic cells at 2.5 uM after 48 hrs by Annexin V-FITC/PI staining based flow cytometry (reference value: 0%); type: functional
[19] = system: U-937; experiment: Induction of apoptosis in human U937 cells assessed as cell death after 48 hrs by Annexin V-FITC/PI staining based flow cytometry; type: functional
[20] = system: U-937; experiment: Induction of apoptosis in human U937 cells assessed as late apoptotic cells at 5 uM after 48 hrs by Annexin V-FITC/PI staining based flow cytometry (reference value: 0.438%); type: functional
[21] = system: U-937; experiment: Induction of apoptosis in human U937 cells assessed as late apoptotic cells at 10 uM after 48 hrs by Annexin V-FITC/PI staining based flow cytometry (reference value: 0.438%); type: functional
[22] = system: U-937; experiment: Induction of apoptosis in human U937 cells assessed as increase in cleaved caspase-3 level at 1 to 5 uM after 36 hrs by Western blot analysis; type: functional, cell-based
[23] = system: U-937; experiment: Induction of apoptosis in human U937 cells assessed as viable cells at 5 uM after 48 hrs by Annexin V-FITC/PI staining based flow cytometry (reference value: 99.4%); type: functional; settings: U-937, 48 h, read-out: Activity
[24] = biological target: DNA (cytosine-5)-methyltransferase 1 (Homo sapiens) (UniProt P26358); experiment: Inhibition of DNMT1 (unknown origin) at 100 uM using poly(dI-dC).poly(dI-dC) as substrate preincubated for 15 mins followed by substrate/[3H]-SAM addition measured after 120 mins by liquid scintillation counting analysis
[25] = species on record: Homo sapiens; experiment: Inhibition of HDAC in human U937 cells assessed as induction of histone H4K8 acetylation after 12 hrs by Western blot analysis; type: cell-based
[26] = system: U-937; experiment: Induction of apoptosis in human U937 cells assessed as late apoptotic cells at 2.5 uM after 48 hrs by Annexin V-FITC/PI staining based flow cytometry (reference value: 0.438%); type: functional
[27] = biological target: T1, Protein deacetylase HDAC6 (Homo sapiens, UniProt Q9UBN7); experiment: Inhibition of HDAC6 (unknown origin) preincubated for 15 mins followed by substrate addition measured after 60 mins by fluorescence assay
T1 sequence (Q9UBN7 whole entry): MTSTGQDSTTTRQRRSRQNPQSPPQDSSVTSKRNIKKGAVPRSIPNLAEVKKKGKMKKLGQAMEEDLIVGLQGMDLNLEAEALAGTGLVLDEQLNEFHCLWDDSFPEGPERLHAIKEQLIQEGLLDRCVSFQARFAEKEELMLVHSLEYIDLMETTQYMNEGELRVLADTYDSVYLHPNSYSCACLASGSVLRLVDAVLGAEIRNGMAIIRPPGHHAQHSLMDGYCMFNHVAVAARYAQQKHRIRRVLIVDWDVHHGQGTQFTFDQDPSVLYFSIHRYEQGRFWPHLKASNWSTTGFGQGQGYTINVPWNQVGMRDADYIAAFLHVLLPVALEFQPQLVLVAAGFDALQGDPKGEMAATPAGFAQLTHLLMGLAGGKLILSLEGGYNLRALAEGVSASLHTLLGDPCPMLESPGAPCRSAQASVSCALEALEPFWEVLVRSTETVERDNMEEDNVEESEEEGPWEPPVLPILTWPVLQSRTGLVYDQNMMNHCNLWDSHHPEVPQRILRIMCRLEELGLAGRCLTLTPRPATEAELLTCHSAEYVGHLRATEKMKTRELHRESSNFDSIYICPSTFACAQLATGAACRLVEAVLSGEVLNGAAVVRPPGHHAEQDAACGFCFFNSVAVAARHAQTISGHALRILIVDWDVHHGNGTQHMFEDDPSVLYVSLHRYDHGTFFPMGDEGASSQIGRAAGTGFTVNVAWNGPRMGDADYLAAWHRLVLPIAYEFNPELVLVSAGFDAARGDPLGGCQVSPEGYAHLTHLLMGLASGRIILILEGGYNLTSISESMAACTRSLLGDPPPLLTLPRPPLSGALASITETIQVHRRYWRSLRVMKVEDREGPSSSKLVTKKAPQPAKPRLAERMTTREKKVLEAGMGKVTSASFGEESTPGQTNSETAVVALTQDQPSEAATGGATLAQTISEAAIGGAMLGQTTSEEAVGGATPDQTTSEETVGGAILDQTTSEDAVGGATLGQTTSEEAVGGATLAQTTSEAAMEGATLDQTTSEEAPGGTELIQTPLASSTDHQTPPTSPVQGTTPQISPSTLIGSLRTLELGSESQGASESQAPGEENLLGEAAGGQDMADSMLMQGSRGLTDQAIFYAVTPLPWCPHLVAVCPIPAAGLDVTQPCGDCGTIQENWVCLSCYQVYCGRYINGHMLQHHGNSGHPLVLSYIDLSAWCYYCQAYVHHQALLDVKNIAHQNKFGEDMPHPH

[28] = biological target: Histone deacetylase 1 (Homo sapiens, UniProt Q13547); experiment: Inhibition of HDAC1 (unknown origin) preincubated for 15 mins followed by substrate addition measured after 60 mins by fluorescence assay
Histone deacetylase 1, sequence (Q13547 whole entry): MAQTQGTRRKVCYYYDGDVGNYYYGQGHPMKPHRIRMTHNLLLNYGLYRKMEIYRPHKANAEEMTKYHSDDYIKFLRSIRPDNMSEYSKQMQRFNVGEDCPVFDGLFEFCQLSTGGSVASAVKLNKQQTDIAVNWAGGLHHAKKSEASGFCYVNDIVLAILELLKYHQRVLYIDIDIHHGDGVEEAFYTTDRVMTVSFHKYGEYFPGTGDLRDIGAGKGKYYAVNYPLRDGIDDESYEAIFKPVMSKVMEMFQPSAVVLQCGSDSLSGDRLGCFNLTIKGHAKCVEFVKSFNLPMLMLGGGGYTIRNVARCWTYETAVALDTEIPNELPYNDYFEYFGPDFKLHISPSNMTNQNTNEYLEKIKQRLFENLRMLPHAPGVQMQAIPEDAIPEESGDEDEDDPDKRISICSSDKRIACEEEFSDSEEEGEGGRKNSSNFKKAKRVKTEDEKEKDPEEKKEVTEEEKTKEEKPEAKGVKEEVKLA

[29] = system: Salmonella typhimurium; experiment: Genotoxicity in Salmonella typhimurium TA102 at 50 times IC50 by Ames test; type: toxicity; settings: salmonella enterica subsp. enterica serovar typhimurium
[30] = system: Salmonella typhimurium; experiment: Genotoxicity in Salmonella typhimurium TA1535 at 50 times IC50 by Ames test; type: toxicity; settings: salmonella enterica subsp. enterica serovar typhimurium
[31] = system: U-937; experiment: Induction of apoptosis in human U937 cells assessed as early apoptotic cells at 2.5 uM after 48 hrs by Annexin V-FITC/PI staining based flow cytometry (reference value: 0.162%); type: functional

Q: Which viability at 10 µM [1] does the source give for O=C(/C=C/c1ccc(CCNC(=O)c2cc(C(F)(F)F)ccc2Cl)cc1)NO here?
A: 0.784%

Q: What about the inhibition [2] of the same compound?
A: 23 to 23.4%

Q: What about the inhibition [3] of the same compound?
A: 48 to 48.5%

Q: And the IC50 [4]?
A: 1060 nM

Q: What about the Activity [5] of the same compound?
A: 0.384%

Q: And the Activity [6]?
A: 0.846%

Q: And the IC50 [7]?
A: 2850 nM

Q: And the Activity [8]?
A: 48.2%

Q: And the Activity [9]?
A: Non-Toxic

Q: And the inhibition [10]?
A: Active

Q: And the inhibition [11]?
A: Dose-dependent effect

Q: What about the viability at 2.5 µM [12] of the same compound?
A: 56%

Q: What about the inhibition [13] of the same compound?
A: Active

Q: And the Activity [14]?
A: Active

Q: And the Activity [15]?
A: Non-Toxic

Q: And the Activity [16]?
A: 30.1%

Q: What about the Activity [17] of the same compound?
A: Active

Q: And the Activity [18]?
A: 0.452%

Q: What about the Activity [19] of the same compound?
A: Dose-dependent effect

Q: What about the Activity [20] of the same compound?
A: 50.7%

Q: And the Activity [21]?
A: 68.3%

Q: What about the Activity [22] of the same compound?
A: Active

Q: And the viability at 5 µM [23]?
A: 0.725%

Q: And the inhibition [24]?
A: 69.9 to 70%

Q: And the inhibition [25]?
A: Dose-dependent effect

Q: And the Activity [26]?
A: 30.7%

Q: And the IC50 [27]?
A: 17.4 nM

Q: And the IC50 [28]?
A: 56.8 nM

Q: And the Activity [29]?
A: Non-Toxic

Q: And the Activity [30]?
A: Non-Toxic

Q: What about the Activity [31] of the same compound?
A: 12.9%
